Test results reported in PMC9090415, “Discovery of small molecule inhibitors of Plasmodium falciparum apicoplast DNA polymerase” (Journal of Enzyme Inhibition and Medicinal Chemistry, 2022).

Molecular target: P. falciparum apicoplast DNA polymerase (Pf-apPOL) (Plasmodium falciparum, UniProt Q8ILY1)
Assay: Fluorescence-based high-throughput DNA polymerase assay (molecular beacon), primary screen and dose-response
Assay type: biochemical
Settings: for DNA Pol: 90 min, 10 µM; for % inhibition apPOL 180' 2.5 / % inhibition apPOL 180' 5 / % inhibition apPOL 180' 10 / % inhibition apPOL 180' 20 / % inhibition apPOL 180' 40 / % inhibition apPOL 180' 80: read at 180'
Summary of the method: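 Single-point screening used 10 µM compound with 20 nM polymerase, 20 nM hairpin substrate and 6 µM dNTPs for 90 min at 25 °C. Confirmatory titrations (2.5–80 µM) followed fluorescence at three times, and IC50 was derived from a fit including a cooperativity term n.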

[1] = "DNA Pol" of the 186 hits list (screen value)

Chain of P. falciparum apicoplast DNA polymerase (Pf-apPOL) (Q8ILY1 entry or part of it): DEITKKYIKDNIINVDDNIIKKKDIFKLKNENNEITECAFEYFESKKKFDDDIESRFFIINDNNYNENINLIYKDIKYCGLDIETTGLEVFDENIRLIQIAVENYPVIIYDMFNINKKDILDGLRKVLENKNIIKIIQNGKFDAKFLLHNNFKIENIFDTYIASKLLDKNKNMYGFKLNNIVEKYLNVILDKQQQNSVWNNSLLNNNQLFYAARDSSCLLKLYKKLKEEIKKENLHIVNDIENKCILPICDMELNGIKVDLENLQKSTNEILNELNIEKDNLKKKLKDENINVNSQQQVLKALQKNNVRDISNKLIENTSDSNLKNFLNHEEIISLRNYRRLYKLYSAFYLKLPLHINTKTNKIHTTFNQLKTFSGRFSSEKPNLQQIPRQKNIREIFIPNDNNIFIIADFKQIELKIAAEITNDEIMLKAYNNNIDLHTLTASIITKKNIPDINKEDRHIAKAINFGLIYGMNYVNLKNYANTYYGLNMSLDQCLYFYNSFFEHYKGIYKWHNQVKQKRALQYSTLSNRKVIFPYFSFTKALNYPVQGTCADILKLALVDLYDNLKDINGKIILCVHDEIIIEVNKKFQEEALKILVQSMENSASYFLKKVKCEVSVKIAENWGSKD

## COc1ccc(-c2n[nH]cc2Oc2ccc(Cl)cc2)c(O)c1 [KU0029837]
[1]
  DNA Pol: 54
DRC-1, concentration 2.5
  % inhibition Apo pol 10': 13.0965%
  % inhibition Apol 90': 6.836%
  % inhibition apPOL 180': 2.031%
DRC-1, concentration 5
  % inhibition Apo pol 10': 22.8396%
  % inhibition Apol 90': 14.8627%
  % inhibition apPOL 180': 3.615%
DRC-1, concentration 10
  % inhibition Apo pol 10': 52.0762%
  % inhibition Apol 90': 39.7229%
  % inhibition apPOL 180': 25.5956%
DRC-1, concentration 20
  % inhibition Apo pol 10': 64.1383%
  % inhibition Apol 90': 52.6198%
  % inhibition apPOL 180': 36.8517%
DRC-1, concentration 40
  % inhibition Apo pol 10': 82.54%
  % inhibition Apol 90': 73.85%
  % inhibition apPOL 180': 62.2191%
DRC-1, concentration 80
  % inhibition Apo pol 10': 88.9574%
  % inhibition Apol 90': 85.1708%
  % inhibition apPOL 180': 78.7822%
DRC-2, concentration 2.5
  % inhibition Apo pol 5': 15%
  % inhibition Apol 40': 15%
  % inhibition ApPOL 90': 13%
  % inhibition apPOL 180': 2.39%
DRC-2, concentration 5
  % inhibition Apo pol 5': 23%
  % inhibition Apol 40': 27%
  % inhibition ApPOL 90': 24%
  % inhibition apPOL 180': 13%
DRC-2, concentration 10
  % inhibition Apo pol 5': 39%
  % inhibition Apol 40': 46%
  % inhibition ApPOL 90': 44%
  % inhibition apPOL 180': 32%
DRC-2, concentration 20
  % inhibition Apo pol 5': 43%
  % inhibition Apol 40': 55%
  % inhibition ApPOL 90': 53%
  % inhibition apPOL 180': 43%
DRC-2, concentration 40
  % inhibition Apo pol 5': 51%
  % inhibition Apol 40': 69%
  % inhibition ApPOL 90': 71%
  % inhibition apPOL 180': 66%
DRC-2, concentration 80
  % inhibition Apo pol 5': 51%
  % inhibition Apol 40': 72%
  % inhibition ApPOL 90': 74%
  % inhibition apPOL 180': 74%
Primary screen value, DNA Pol
  DNA Pol: 54

## Cc1cccc2c(C(=O)NC(C)C)cc(N(C)C)nc12 [Molecule 47, CC(NC(=O)c1cc(nc2c1cccc2C)N(C)C)C]
'DNA Pol' of the 186 hits list (primary screen value)
  DNA Pol: 22
DNA Pol (primary screen value)
  DNA Pol: 22
DRC-1, concentration 2.5
  % inhibition Apo pol 10': 6.184%
  % inhibition Apol 90': 2.22%
  % inhibition apPOL 180': 2.5191%
DRC-1, concentration 5
  % inhibition Apo pol 10': 4.255%
  % inhibition Apol 90': 0.7023%
  % inhibition apPOL 180': -0.7995%
DRC-1, concentration 10
  % inhibition Apo pol 10': 30.9701%
  % inhibition Apol 90': 20.6995%
  % inhibition apPOL 180': 11.775%
DRC-1, concentration 20
  % inhibition Apo pol 10': 57.6029%
  % inhibition Apol 90': 44.2849%
  % inhibition apPOL 180': 29.3384%
DRC-1, concentration 40
  % inhibition Apo pol 10': 72.1055%
  % inhibition Apol 90': 67.2168%
  % inhibition apPOL 180': 56.4011%
DRC-1, concentration 80
  % inhibition Apo pol 10': 75.9231%
  % inhibition Apol 90': 75.4674%
  % inhibition apPOL 180': 69.9021%
DRC-2, concentration 2.5
  % inhibition Apo pol 5': 7%
  % inhibition Apol 40': 6.48%
  % inhibition ApPOL 90': 6%
  % inhibition apPOL 180': 1.25%
DRC-2, concentration 5
  % inhibition Apo pol 5': 13%
  % inhibition Apol 40': 14%
  % inhibition ApPOL 90': 11%
  % inhibition apPOL 180': 6.35%
DRC-2, concentration 10
  % inhibition Apo pol 5': 21%
  % inhibition Apol 40': 25%
  % inhibition ApPOL 90': 21%
  % inhibition apPOL 180': 14%
DRC-2, concentration 20
  % inhibition Apo pol 5': 37%
  % inhibition Apol 40': 43%
  % inhibition ApPOL 90': 41%
  % inhibition apPOL 180': 31%
DRC-2, concentration 40
  % inhibition Apo pol 5': 47%
  % inhibition Apol 40': 62%
  % inhibition ApPOL 90': 64%
  % inhibition apPOL 180': 60%
DRC-2, concentration 80
  % inhibition Apo pol 5': 35%
  % inhibition Apol 40': 58%
  % inhibition ApPOL 90': 63%
  % inhibition apPOL 180': 66%

## CCOC(=O)C1=C2c3cc(OC)c(OC)cc3CC(C)(C)N2C(=O)C1=O [KU0193659]
[1]
  DNA Pol: 50
DRC-1, concentration 2.5
  % inhibition Apo pol 10': 0.5902%
  % inhibition Apol 90': 2.413%
  % inhibition apPOL 180': 2.939%
DRC-1, concentration 5
  % inhibition Apo pol 10': 6.068%
  % inhibition Apol 90': 7.311%
  % inhibition apPOL 180': 8.013%
DRC-1, concentration 10
  % inhibition Apo pol 10': 24.2091%
  % inhibition Apol 90': 23.2588%
  % inhibition apPOL 180': 23.6538%
DRC-1, concentration 20
  % inhibition Apo pol 10': 48.7622%
  % inhibition Apol 90': 44.3755%
  % inhibition apPOL 180': 40.1403%
DRC-1, concentration 40
  % inhibition Apo pol 10': 76.2717%
  % inhibition Apol 90': 72.221%
  % inhibition apPOL 180': 67.3971%
DRC-1, concentration 80
  % inhibition Apo pol 10': 83.8971%
  % inhibition Apol 90': 80.3053%
  % inhibition apPOL 180': 76.7403%
DRC-2, concentration 2.5
  % inhibition Apo pol 5': -4%
  % inhibition Apol 40': -2.41%
  % inhibition ApPOL 90': -1.64%
  % inhibition apPOL 180': -2%
DRC-2, concentration 5
  % inhibition Apo pol 5': -4.49%
  % inhibition Apol 40': -3%
  % inhibition ApPOL 90': -0.605%
  % inhibition apPOL 180': 1.35%
DRC-2, concentration 10
  % inhibition Apo pol 5': 16%
  % inhibition Apol 40': 21%
  % inhibition ApPOL 90': 22%
  % inhibition apPOL 180': 23%
DRC-2, concentration 20
  % inhibition Apo pol 5': 26%
  % inhibition Apol 40': 39%
  % inhibition ApPOL 90': 43%
  % inhibition apPOL 180': 46%
DRC-2, concentration 40
  % inhibition Apo pol 5': 41%
  % inhibition Apol 40': 57%
  % inhibition ApPOL 90': 64%
  % inhibition apPOL 180': 68%
DRC-2, concentration 80
  % inhibition Apo pol 5': 41%
  % inhibition Apol 40': 57%
  % inhibition ApPOL 90': 62%
  % inhibition apPOL 180': 66%
Primary screen value, DNA Pol
  DNA Pol: 50

## Cc1ccc(N2CCC(NC(=O)Cc3cccs3)C2=O)cc1C (stereo not drawn) [Molecule 57, O=C(NC1CCN(C1=O)c1ccc(c(c1)C)C)Cc1cccs1]
186 hits, DNA Pol (screen value), unit not given
  DNA Pol: 30
'DNA Pol' (screen value), unit not given
  DNA Pol: 30
DRC-1, read at 10', concentration 2.5
  % inhibition Apo pol 10' 2.5: -4.081%
DRC-1, read at 10', concentration 5
  % inhibition Apo pol 10' 5: 5.106%
DRC-1, read at 10', concentration 10
  % inhibition Apo pol 10' 10: 22.9359%
DRC-1, read at 10', concentration 20
  % inhibition Apo pol 10' 20: 41.5954%
DRC-1, read at 10', concentration 40
  % inhibition Apo pol 10' 40: 44.443%
DRC-1, read at 10', concentration 80
  % inhibition Apo pol 10' 80: 44.3208%
DRC-1, read at 90', concentration 2.5
  % inhibition Apol 90' 2.5: -2.123%
DRC-1, read at 90', concentration 5
  % inhibition Apol 90' 5: 4.8282%
DRC-1, read at 90', concentration 10
  % inhibition Apol 90' 10: 19.3171%
DRC-1, read at 90', concentration 20
  % inhibition Apol 90' 20: 42.7079%
DRC-1, read at 90', concentration 40
  % inhibition Apol 90' 40: 53.5477%
DRC-1, read at 90', concentration 80
  % inhibition Apol 90' 80: 61.4172%
DRC-1, concentration 2.5
  % inhibition apPOL 180' 2.5: -1.073%
DRC-1, concentration 5
  % inhibition apPOL 180' 5: 1.4295%
DRC-1, concentration 10
  % inhibition apPOL 180' 10: 11.4485%
DRC-1, concentration 20
  % inhibition apPOL 180' 20: 30.1368%
DRC-1, concentration 40
  % inhibition apPOL 180' 40: 47.6529%
DRC-1, concentration 80
  % inhibition apPOL 180' 80: 62.3607%
DRC-2, concentration 10
  % inhibition Apo pol 5': 24%
  % inhibition apPOL 180' 10: 22%
DRC-2, concentration 20
  % inhibition Apo pol 5': 24%
  % inhibition ApPOL 90': 47%
  % inhibition apPOL 180' 20: 43%
DRC-2, concentration 40
  % inhibition ApPOL 90': 47%
  % inhibition apPOL 180' 40: 49%
DRC-2, read at 5', concentration 2.5
  % inhibition Apo pol 5' 2.5: -1.72%
DRC-2, read at 5', concentration 5
  % inhibition Apo pol 5' 5: 2.54%
DRC-2, read at 5', concentration 10
  % inhibition Apo pol 5' 10: 24%
DRC-2, read at 5', concentration 20
  % inhibition Apo pol 5' 20: 24%
DRC-2, read at 5', concentration 40
  % inhibition Apo pol 5' 40: 6.44%
DRC-2, read at 5', concentration 80
  % inhibition Apo pol 5' 80: -4.26%
DRC-2, read at 40', concentration 2.5
  % inhibition Apol 40' 2.5: -1.82%
DRC-2, read at 40', concentration 5
  % inhibition Apol 40' 5: 5.58%
DRC-2, read at 40', concentration 10
  % inhibition Apol 40' 10: 32%
DRC-2, read at 40', concentration 20
  % inhibition Apol 40' 20: 44%
DRC-2, read at 40', concentration 40
  % inhibition Apol 40' 40: 39%
DRC-2, read at 40', concentration 80
  % inhibition Apol 40' 80: 37%
DRC-2, read at 90', concentration 2.5
  % inhibition ApPOL 90' 2.5: -2.11%
DRC-2, read at 90', concentration 5
  % inhibition ApPOL 90' 5: 5%
DRC-2, read at 90', concentration 10
  % inhibition ApPOL 90' 10: 30%
DRC-2, read at 90', concentration 20
  % inhibition ApPOL 90' 20: 47%
DRC-2, read at 90', concentration 40
  % inhibition ApPOL 90' 40: 47%
DRC-2, read at 90', concentration 80
  % inhibition ApPOL 90' 80: 48%
DRC-2, concentration 2.5
  % inhibition apPOL 180' 2.5: -1.11%
DRC-2, concentration 5
  % inhibition apPOL 180' 5: 3.34%
DRC-2, concentration 80
  % inhibition apPOL 180' 80: 55%
